In the assay the test system is NUP-MDSC. Briefly: Secondary mouse MDSC screen (dose-dependent; IFNγ secretion and T cell proliferation). Format: cell-based. The following applies: for activity in the NUP-MDSC assay (proliferation and INFγ secretion of mouse CD8+ T cells): dose-dependent confirmation screen; for EC50: Mus musculus, NUP-MDSC/CD8+ T cell coculture. The procedure: Compound source plates (REMP-PP#180030) were pre-prepared by adding 500 nl compound solution (5 mmol/l starting concentration) and 11.5 μl Hepes (20 mmol/l) buffer to achieve a final ready to screen concentration of 0.2 mmol/l. Cocultured cell assay plates were prepared by dispensing 20 μl of differentiated MDSC cells (12,500 cells/cavity) and 20 μl of CD8+ T-cells with a MultidropCombi (12,500 cells/cavity). In the next step, 2 μl of pre-prepared compound solution was transferred via BC i5 to the cell plate followed by 3days incubation at 37 °C and 5% CO2. Afterward, the supernatant in cell plates were homogenized via orbital shaking at 2000 rpm for 20s and centrifugated with 1650 rpm for 30 s. On a BC i5 pipetting robot, 2 μl supernatant were transferred to a pre-filled (30 μl PBS) assay plate followed by centrifugation and addition of 8 μl IFNγ HTRF detection kit, followed by orbital mixing at 2000 rpm for 20s and an incubation step for 3 days at 37 °C and 5% CO2. Assay plate was analyzed on an PE Envision. Cell plates were centrifuged in parallel with 300g for 60 s and orbital mixed at 2000 rpm for 20 s followed by proliferation analysis via Sartorius IQue2. Effects were normalized against stimulator control mIL-2 and 0.2% dimethyl sulfoxide (DMSO) as neutral control. A hit was defined as a compound with >50% effect in at least one of the measured effects.
Compound source plates (REMP-PP#180030) for dose-dependent secondary screens were pre-prepared by adding […] compound solution (1.0E + 01 mmol/l, 3.2E + 00 mmol/l, 1.0E + 00 mmol/l, 3.2E-01 mmol/l, 1.0E-01 mmol/l, 3.2E-02 mmol/l, 1.0E-02 mmol/l, 3.2E-03 mmol/l, 1.0E-03 mmol/l, 3.2E-04 mmol/l; starting concentration) and 12 μl Hepes (20 mM) buffer to achieve a final ready to screen concentration of 4.0E-02 mmol/l, 1.3E-02 mmol/l, 4.0E-03 mmol/l, 1.3E-03 mmol/l, 4.0E-04 mmol/l, 1.3E-04 mmol/l, 4.0E-05 mmol/l, 1.3E-05 mmol/l, 4.0E-06 mmol/l, and 1.3E-06 mmol/l. All other steps are identical to the described workflow under “Primary mouse MDSC screen”.
After confirming the physiological and pharmacological suitability of the NUP-MDSC model, we developed a high-throughput screen for the identification of potential MDSC modulators (Fig. 4A and supplemental Fig. S3). To accomplish this, mouse NUP-MDSC were generated as described before, co-cultured with freshly isolated mouse CD8+ T cells, which were activated with anti-CD3/anti-CD28 antibodies, and subsequently treated with compounds or DMSO vehicle (supplemental Fig. S4A). After 72 h, T cell activity was assessed by recording T cell proliferation and IFN-γ secretion. […] Compounds were declared hits if reversing the suppression effect of NUP-MDSC on T cells with ≥50% in either readout resulting in 392 hit compounds (Fig. 4B). […]

Results on 2 compounds are retold here after paper PMC10518717, “High-Throughput Screening and Proteomic Characterization of Compounds Targeting Myeloid-Derived Suppressor Cells” (Molecular & Cellular Proteomics : MCP, 2023).

Like-named read-outs stand apart in the source and are kept apart here.

For `c1ccc2c(c1)c(-n1ccnc1)nn1nnnc21` [compound 3], the “activity in the NUP-MDSC assay (proliferation and INFγ secretion of mouse CD8+ T cells)” value was “inactive”.
On to `CCOC(=O)c1nnn(-c2nn3nnnc3c3ccccc23)c1C` [compound 2], for which the “activity in the NUP-MDSC assay (proliferation and INFγ secretion of mouse CD8+ T cells)” value is “rescued the proliferation and INFγ secretion”. Further, the EC50 (Fig. 4D, read-out: T cell proliferation EC50) came out at 6.5 µM. Moreover, the EC50 (read-out: EC50, based on INFγ secretion of secondary mouse screen) turned out to be 2.6 µM.
